Test results: paper PMC2837466 (Journal of chromatography. B, Analytical technologies in …, 2010)

Biological target: human serum albumin (HSA) (Homo sapiens, UniProt P02768)
Assay: high-performance affinity chromatography, frontal analysis
Format: binding

human serum albumin (HSA), sequence (P02768 25-609): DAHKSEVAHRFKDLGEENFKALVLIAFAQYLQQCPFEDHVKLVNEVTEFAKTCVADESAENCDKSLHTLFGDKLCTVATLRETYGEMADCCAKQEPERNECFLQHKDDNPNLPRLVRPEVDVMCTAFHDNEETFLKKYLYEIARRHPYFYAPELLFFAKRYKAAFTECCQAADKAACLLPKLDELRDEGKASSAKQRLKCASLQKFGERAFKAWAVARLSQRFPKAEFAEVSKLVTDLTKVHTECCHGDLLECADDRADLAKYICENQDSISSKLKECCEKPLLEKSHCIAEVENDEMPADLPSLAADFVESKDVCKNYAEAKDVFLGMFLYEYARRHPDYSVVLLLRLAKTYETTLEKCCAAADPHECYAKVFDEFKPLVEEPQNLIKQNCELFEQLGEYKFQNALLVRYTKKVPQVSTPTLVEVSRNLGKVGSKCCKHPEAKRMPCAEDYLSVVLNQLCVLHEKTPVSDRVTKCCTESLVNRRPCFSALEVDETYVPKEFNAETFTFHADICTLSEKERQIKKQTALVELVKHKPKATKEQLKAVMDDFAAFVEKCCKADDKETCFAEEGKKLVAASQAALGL

## CCN(CC)CC(=O)Nc1c(C)cccc1C [lidocaine]
  Kd: 21.3 µM
